Source: patent US20240100013A1, “SOTAGLIFLOZIN FOR IMPROVING LEFT ATRIAL FUNCTION” (CHARITÉ-UNIVERSITÄTSMEDIZIN BERLIN, priority 2021, published 2024)

Legend:
LA cardiomyocytes = assay: Mitochondrial structure and Ca2+ uptake in LA cardiomyocytes; type: cell-based, rat; details: HFpEF
Source text: For cell membrane permeabilization and subsequent measurements of mitochondrial Ca^2+ uptake (See ‘Mitochondrial structure and Ca^2+ uptake’) wash and internal solutions were used. Wash solution contained (in mM): 100 potassium acetate, 15 KCl, 0.35 EGTA, 0.75 MgCl2, 10 HEPES; pH adjusted to 7.2 with KOH. Internal solution contained (in mM): 125 KCl, 10 NaCl, 20 HEPES, 5 pyruvate, 2 maleic acid, 2 glutamic acid, 0.5 KH2PO4, 0.5 MgCl2, 5 EGTA, 0.002 free Ca^2+(MaxChelator), 15 BDM, pH adjusted to 7.2 with KOH. For permeabilization, 0.005% saponin was added to the internal solution.
Mitochondrial structure and Ca^2+ uptake. Mitochondrial structure was visualized by local thresholding of two-dimensional images acquired with MitoTracker Red (FIGS. 5A-B, 6D) and MitoTracker Green (FIGS. 4C-F) at an LSM 800 laser scanning microscope (Zeiss, Oberkochen, Germany). The fraction of mitochondria in relation to cell surface was taken as a measure of mitochondrial density. The averaged perimeter to area ratio of mitochondrial structures per cell was calculated as an indicator of mitochondrial fission using a 2-step Otsu thresholding algorithm. See Hohendanner F, Ljubojevic S, MacQuaide N, Sacherer M, Sedej S, Biesmans L, Wakula P, Platzer D, Sokolow S, Herchuelz A et al: “Intracellular dyssynchrony of diastolic cytosolic [Ca(2)(+)] decay in ventricular cardiomyocytes in cardiac remodeling and human heart failure,” Circ Res 2013, 113(5):527-538.
Mitochondrial Ca^2+ uptake was determined as previously described in detail. See Maxwell J T, Tsai C H, Mohiuddin T A, Kwong J Q: “Analyses of Mitochondrial Calcium Influx in Isolated Mitochondria and Cultured Cells,” Journal of visualized experiments: JoVE 2018(134). LA cardiomyocytes were loaded with Rhod-2 AM and MitoTracker green, transferred to an LSM 800 laser scanning microscope and washed twice with sodium and calcium-free wash solution. The cells were then permeabilized with internal solution containing 0.005% saponin for a duration of 30-60 s and consecutively washed twice with nominal Ca^2+ free internal solution containing 5 mM EGTA. Two-dimensional images of Rhod-2 (excitation: 559 nm, emission: 575-675 nm) and MitoTracker green fluorescence (excitation: 488 nm, emission: 505-525 nm) were obtained. The perfusion was switched to internal solution containing 2 μM Ca^2+. After 1 min, a second set of Rhod-2/MitoTracker images was obtained. Following another 1-min interval, a third set of images was obtained to confirm that mitochondrial Ca^2+ uptake had indeed been completed in the second set. A binary mask of mitochondrial structures was derived from MitoTracker green images and positive pixels defined as the region-of-interest for sub-sequent determination of Rhod-2 signal intensity (F). Signal intensity during perfusion with 0 μM Ca^2+ was defined as F0 and changes of [Ca^2+] after exposure to 2 μM Ca^2+ expressed as ΔF=F−F0. The change of mitochondrial density (L.%) was quantified as a measure of mitochondrial swelling.

[1] = rats; 30 mg/kg/day; cited from earlier work
[2] = setting of diabetes; cited from earlier work

Compound: CCOc1ccc(Cc2cc([C@@H]3O[C@H](SC)[C@@H](O)[C@H](O)[C@H]3O)ccc2Cl)cc1 [sotagliflozin, (2S,3R,4R,5S,6R)-2-(4-chloro-3-(4-ethoxybenzyl)phenyl)-6-(methylthio)tetrahydro-2H-pyran-3,4,5-triol]
- increased density of mitochondria in LA cardiomyocytes (LA cardiomyocytes): prevented
- increase of mitochondrial Ca2+ uptake (LA cardiomyocytes; Sota vs vehicle): two-fold increase
- mitochondrial fission (LA cardiomyocytes; after 1 h glucose starvation): significantly reduced
- swelling of mitochondria (LA cardiomyocytes; after exposure to 2 μM Ca2+): this effect did not occur
- mitochondrial Ca2+ uptake (LA cardiomyocytes; permeabilized cells, exposure from 0 μM to 2 μM Ca2+, vehicle 0.84±0.07): 1.76±0.27 AF/F0
- urinary glucose secretion [1]: near maximal
- effects on blood pressure and body weight [2]: beneficial effects
